“And” between values parts separate entries of the source, which are not always exact repeats. Equal values may be shown once. “Also recorded” adds a separate entry of the source.
How the values were obtained:
[1] = target: T1, GHSR1a^N305A (Homo sapiens, UniProt Q92847, N305A); experiment: iCa2+ at N305A mutant; format: cell-based
T1 construct: expressed in transfected cells; host or cells: HEK293/T
Procedure: (§1) For experiments with WT and Gt KO HEK293/S cells, […] of hGHSR1a^WT, 10 μg of miAEQ, and 2.5 μg of pcDNA3.1 was transiently transfected into 10 cm dishes and incubated overnight. […] Twenty-four hours later, experiments proceeded in accordance with the procedures described above. To control for any possible kinetic differences in genetically modified cell lines or GHSR1a variants, the average ligand-induced response over 10 seconds was calculated, then normalized by dividing the L-miAeq by the L-miAeq plus the Lysis-miAeq and normalized to the appropriate control/reference condition.

[2] = target: T2, hGHSR1a^WT (Homo sapiens, UniProt Q92847); conditions: 100 nM, 45 minutes
Procedure: U2OS cells stably expressing the human GHSR1a^WT and β-arr2^GFP were seeded onto 35 mm MatTek (Ashland, MA, USA) glass coverslip dishes in opti-MEM supplemented with 2% FBS and antibiotic-antimycotic and grown overnight in a humified incubator (5% CO2, 37° C.). The next morning, media was aspirated and replaced with fresh, serum-free opti-MEM (supplemented with antibiotic-antimycotic). […] Next, treatment was terminated by aspiration of media, a PBS wash, and fixation with 4% paraformaldehyde (20 minutes, room temperature (RT)). Fixed cells were either stored at 4° C. or immediately imaged for β-arr2^GFP translocation with a Zeiss LSM 510 meta confocal microscopy.

[3] = target: T2, hGHSR1a^WT; experiment: Gαq-dependent intracellular Ca2+ mobilization (iCa2+, miAeq); format: cell-based; set-up: HEK293/T (transient); HEK293S Gαq knockout (transient, NanoBiT Gαq)
Procedure: Gαq-Dependent Intracellular Ca^2+ Mobilization. […] Cells were split into and seeded into 10 cm dishes without antibiotic selection and grown to confluency overnight. The next morning, cells were serum starved in 10 mL of clear opti-MEM (supplemented with L-glutamine and HEPES; Gibco, Waltham, MA) for 3-4 hours in a 37° C. incubator with 5% CO2. Then, 25 μL of coelenterazine H (NanoLight Technology, Pinetop, AZ) was added to each 10 mL dish and incubated for another 1-2 hours. For antagonist assays, test compounds were either added directly to the media in 10 cm dishes, or cells were collected by gentle washing/trituration and plated onto white, clear-bottomed 96-well plates for 30 minutes—1 hour. Once the coelenterazine H (or antagonist) incubation was complete, cells were harvested from the 10 cm dish by gentle washing/trituration and collected in a 15 mL conical tube. Cell suspensions were then immediately subjected to assay by injecting cells onto a white, clear-bottomed 96-well plate containing 2× test compounds. Luminescence was read without delay and for 10 seconds per well. To control for cell number variability, cells were lysed in 2× lysis buffer (100 mM CaCl2+0.2% Triton-X) immediately following the assay. The max ligand-induced response (Ca^2+ mobilization: net-miAeq) over 10 seconds was normalized by dividing the ligand-induced luminescence counts (L-miAeq) by the ligand-induced luminescence counts (L-MiAeq) plus the luminescence measured upon cell lysis (Lysis-miAeq). Relative, lysis-normalized data were then normalized to the appropriate control/reference condition.
as §1

[4] = target: T3, hGHSR1a^A204E (Homo sapiens, UniProt Q92847, A204E); experiment: cell-based; conditions: read-out: Gαq dissociation maximal efficacy decrease at GHSR1a^A204E
Target sequence in this assay (Q92847 whole entry A204E): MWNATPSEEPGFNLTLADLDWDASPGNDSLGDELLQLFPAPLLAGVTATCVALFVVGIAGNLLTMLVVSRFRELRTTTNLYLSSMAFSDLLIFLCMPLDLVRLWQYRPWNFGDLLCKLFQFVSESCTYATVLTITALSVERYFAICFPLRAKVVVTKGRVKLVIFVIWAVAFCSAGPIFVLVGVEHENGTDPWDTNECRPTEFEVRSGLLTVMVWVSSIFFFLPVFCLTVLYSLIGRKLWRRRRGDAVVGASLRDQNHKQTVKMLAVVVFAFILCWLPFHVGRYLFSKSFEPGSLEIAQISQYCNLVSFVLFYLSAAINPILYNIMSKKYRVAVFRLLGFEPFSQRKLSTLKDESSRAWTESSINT
Procedure: BRET-based Gαq Dissociation & β-arr2 Recruitment Assays. TRUPATH Gα dissociation: Gαq/i1/i2/OA/12/13/sS^RLuc8 and Gγ8^GFP2 or Gγ9^GFP2 were transiently co-transfected with human 3×HA-GHSR1a^WT and untagged Gβ3 at a 1:1:1:1 ratio (100 μg each) into monolayers of HEK293/T cells along with 1.6 μg pcDNA3.1. The next morning, media (DMEM supplemented with 10% FBS and antibiotic/antimycotic) was exchanged and after 4-6 hours, cells were plated on white 96-well, clear-bottomed assay plates at a density of 40,000-50,000 cells/well in opti-MEM supplemented with 2% FBS and antibiotic/antimycotic. The next morning, opti-MEM was removed and cells were incubated with 80 μL HBSS supplemented with 20 mM HEPES (pH 7.4) for 4 hours. Cells were then treated with 10 μL of the luminescent substrate, coelenterazine 400a (5 μM final), for 5 minutes at room temperature prior to the addition of 10 μL of test compound. Five minutes after ligand application, luminescence was measured by a Mithras 940 plate reader over 30 minutes and the maximal response was utilized for generating all C/R curves.

[5] = target: GHSR1a (Homo sapiens, UniProt Q92847); experiment: Bias factor, intrinsic relative activities (RAi) model, Gαq vs β-arr2; set-up: expressed in transfected cells; host or cells: HEK293/T and HEK293/N (the source assays)
Excerpt: To quantitatively assess N8279 bias between the Gαq and β-arr2 (FIG. 2A) pathways, the intrinsic relative activities (RAi) model was used. […] Ultimately, these analyses together supported that N8279 was a G protein-biased agonist of both proximal and downstream GHSR1a-Gαq signaling.

[6] = tested on: C57BL/6J mice; experiment: Novelty-induced open-field locomotion in WT mice; format: in vivo, mouse; conditions: 2.5, 5, 10 mg/kg IP
Procedure: N=14-17 mice per treatment group.
Novelty-induced locomotor activity in DAT KO and inbred C57BL/6J mice. Open-field locomotor activity in mice was performed similar to that described in Barak et al., ACS Chem Biol. (2016)11(7):1880-90, the disclosure of which is incorporated herein in its entirety. In brief, Age- and sex-matched, littermate DAT KO and inbred C57BL/6J mice between 2-6 months of age were used to measure locomotor activity in an Omnitech Digiscan activity monitor (20×20 cm2; Accuscan Instruments, Columbus, OH). Locomotor activity was measured at 5 minutes intervals.

[7] = target: T4, GHSR1a^P200A (Homo sapiens, UniProt Q92847, P200A); experiment: Gαq dissociation and iCa2+ at P200A mutant; format: cell-based
T4 construct: expressed in transfected cells; host or cells: HEK293/T
Procedure: as §1

[8] = tested on: GPCRome (320 receptors); experiment: PRESTO-Tango GPCRome β-arr2 recruitment screen, other receptors; format: cell-based; conditions: N8279 1 μM; hit >3-fold
Procedure: Hits were defined as >3-fold activation above baseline. […] The assay quality was assessed by plotting duplicate, independent trial averages (derived from 4 independent wells) for each receptor as a point (X,Y). The corresponding plot of points for an ideal assay were fit by a regression line with the slope=1.

[9] = target: T3, hGHSR1a^A204E; experiment: NanoBiT β-arr2 recruitment at A204E variant; conditions: did not reach saturation
Target sequence in this assay (Q92847 whole entry A204E): as above
Target sequence in this assay (P32121 whole entry partner): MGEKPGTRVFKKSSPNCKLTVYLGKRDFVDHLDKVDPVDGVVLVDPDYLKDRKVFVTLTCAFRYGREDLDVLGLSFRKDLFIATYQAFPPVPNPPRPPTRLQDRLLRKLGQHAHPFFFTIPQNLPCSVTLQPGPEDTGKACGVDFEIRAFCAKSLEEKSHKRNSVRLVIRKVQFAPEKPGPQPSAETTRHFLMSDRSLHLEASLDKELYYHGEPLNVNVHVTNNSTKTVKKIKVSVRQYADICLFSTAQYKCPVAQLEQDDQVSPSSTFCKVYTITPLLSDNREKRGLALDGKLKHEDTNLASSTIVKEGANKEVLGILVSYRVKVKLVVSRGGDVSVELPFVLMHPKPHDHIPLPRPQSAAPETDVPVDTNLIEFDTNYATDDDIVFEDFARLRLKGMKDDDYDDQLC
Procedure: (§2) β-arr2 recruitment: In agonist and antagonist assays of NanoBiT-based β-arr2 recruitment, hGHSR1a^WT-Lg^BiT and ^SmBiT-β^WT were transiently co-transfected at a 1:1 ratio (250 μg each) into monolayers of HEK293/T cells on 6-well plates along with 2 μg of pcDNA3.1. For assays employing the Ala204Glu variant, hGHSR1a^A204E-Lg^BiT was transfected at 2×hGHSR1a^WT-Lg^BiT, as performed for iCa^2+ assays with hGHSR1a^A204E described above. For GHSR1a-β-arr2 saturation assays, a fixed amount of hGHSR1a^WT-Lg^BiT cDNA (250 μg) was transfected with 0, 62.5 (1:0.25), 125 (1:0.5), 250 (1:1), 500 (1:2), or 1000 (1:4) μg of ^SmBiTβ-arr^WT. The morning after transfection, media was exchanged and after 4-6 hours, cells were then plated on white 96-well, clear-bottomed assay plates at a density of 45,000 cells/well in opti-MEM supplemented with 2% FBS and antibiotic/antimycotic. The following morning, opti-MEM was removed and cells were incubated with 70-80 μL HBSS supplemented with 20 mM HEPES (pH 7.4) for 4 hours. Cells were then treated with 10 μL of coelenterazine H (5 μM final) for 15-20 minutes at room temperature. Cells were then stimulated with 10 μL of test compounds and 2 minutes later, luminescence was measured over 5 minutes, which encompassed the peak β-arr2 recruitment signal.

[10] = target: T5, hGHSR1a^WT-LgBiT / SmBiT-β-arr2 (Homo sapiens, UniProt Q92847); experiment: NanoBiT β-arr2 recruitment; format: cell-based
T5 construct: expressed in transfected cells; host or cells: HEK293/T, transient
Procedure: as §2

[11] = 5 minute pretreatment, ghrelin 40 nM

T5 sequence (Q92847 whole entry): as the sequence (Q92847 whole entry A204E) above, with E204A counted along it
T5 sequence (P32121 whole entry partner): as the sequence (P32121 whole entry partner) above
Sequence of GHSR1a (Q92847 whole entry): as the sequence (Q92847 whole entry A204E) above, with E204A counted along it
T2 sequence (Q92847 whole entry): as the sequence (Q92847 whole entry A204E) above, with E204A counted along it
T1 sequence (Q92847 whole entry N305A): as the sequence (Q92847 whole entry A204E) above, with E204A, N305A counted along it
T4 sequence (Q92847 whole entry P200A): as the sequence (Q92847 whole entry A204E) above, with P200A, E204A counted along it

SMILES: COc1ccc(C(=O)c2c(C(=O)NCCCN(C)C)oc3ccc(Cl)cc3c2=O)cc1OC [Example N8279, 6-Chloro-3-(3,4-dimethoxybenzoyl)-N-(3-(dimethylamino)propyl)-4-oxo-4H-chromene-2-carboxamide]
- iCa2+ potency reduction at GHSR1a^N305A [1]: 6.5 fold
- β-arr2^GFP translocation in words [2]: minimal response
- iCa2+ EC50, fold more potent than own GHSR1a binding IC50 [3]: 41 fold
- iCa2+ potency, fold less potent than L585 [3]: 3.4 fold
- iCa2+ potency, fold less potent than MK-0677 [3]: 5.3 fold
- iCa2+ potency, fold more potent than ghrelin [3]: 8.9 fold
- increase in ghrelin's iCa2+ potency by N8279 ([3]; N8279 10 μM, concomitant): ~3 fold
- modulation of ghrelin-induced iCa2+ in words ([3]; concomitant N8279): weak ago-PAM activity
- iCa2+ efficacy in words ([3]; relative to ghrelin): full agonist
- Emax [4]: ~45%
- downstream bias ([5]; reference L585): ~14 fold
- downstream bias factor (β) ([5]; reference L585): 1.15
- proximal bias ([5]; reference L585): ~28 fold
- proximal bias factor (β) ([5]; reference L585): 1.45
- assay-standardized proximal bias factor (β), BRET-Gαq/BRET-β-arr2 ([5]; reference ghrelin): 1.16±0.11 and 1.16
- assay-standardized proximal bias factor (β), NanoBiT-Gαq/NanoBiT-β-arr2 ([5]; reference ghrelin): 1.36±0.33 and 1.36
- assay-standardized proximal bias, BRET-Gαq/BRET-β-arr2 ([5]; reference ghrelin): ~14 fold
- assay-standardized proximal bias, NanoBiT-Gαq/NanoBiT-β-arr2 ([5]; reference ghrelin): ~23 fold
- downstream bias factor (β), iCa2+ vs NanoBiT β-arr2 ([5]; reference ghrelin): 2.63
- downstream bias, iCa2+ vs NanoBiT β-arr2 ([5]; reference ghrelin): ~427 fold
- proximal bias factor (β), Gαq dissociation vs NanoBiT β-arr2 ([5]; reference ghrelin): 0.59
- proximal bias, Gαq dissociation vs NanoBiT β-arr2 ([5]; reference ghrelin): ~4 fold
- novelty-induced open-field locomotion in words [6]: No statistically significant differences; also recorded: did not affect
- potency and Emax at GHSR1a^P200A in words [7]: reduced dramatically
- activation above baseline at any other GPCR [8]: ≤ 3 fold
- β-arr2 recruitment potency reduction at GHSR1a^A204E vs WT [9]: > 20 fold
- NanoBiT β-arr2 recruitment, fold less potent than L585 [10]: ~43 fold
- NanoBiT β-arr2 recruitment, fold less potent than ghrelin [10]: ~20 fold
- inhibition of EC80 ghrelin-induced β-arr2 recruitment in words [10, 11]: significantly, but incompletely
- inhibition of EC80 ghrelin-induced β-arr2 recruitment, fold less potent than JMV2959 [10, 11]: 1.7 fold
- inhibition of EC80 ghrelin-induced β-arr2 recruitment, fold less potent than YIL781 [10, 11]: 2.9 fold
- relative affinity (BiTd) of β-arr2 for GHSR1a, fold weaker than in ghrelin-treated cells ([10]; saturation, N8279 100-200 nM vs ghrelin 100 nM): 22.5 fold
